{"source": "ChEMBL document CHEMBL1151074", "about": "“RATIONAL DESIGN, SYNTHESIS, AND SERINE PROTEASE INHIBITORY ACTIVITY OF NOVEL P1-ARGININOYL HETEROCYCLES” (Bioorg Med Chem Lett, 1997)", "key": {"Plasminogen": {"biological_target": "Plasminogen (Rattus norvegicus, UniProt Q01177)", "sequence (Q01177 97-581 limits assumed)": "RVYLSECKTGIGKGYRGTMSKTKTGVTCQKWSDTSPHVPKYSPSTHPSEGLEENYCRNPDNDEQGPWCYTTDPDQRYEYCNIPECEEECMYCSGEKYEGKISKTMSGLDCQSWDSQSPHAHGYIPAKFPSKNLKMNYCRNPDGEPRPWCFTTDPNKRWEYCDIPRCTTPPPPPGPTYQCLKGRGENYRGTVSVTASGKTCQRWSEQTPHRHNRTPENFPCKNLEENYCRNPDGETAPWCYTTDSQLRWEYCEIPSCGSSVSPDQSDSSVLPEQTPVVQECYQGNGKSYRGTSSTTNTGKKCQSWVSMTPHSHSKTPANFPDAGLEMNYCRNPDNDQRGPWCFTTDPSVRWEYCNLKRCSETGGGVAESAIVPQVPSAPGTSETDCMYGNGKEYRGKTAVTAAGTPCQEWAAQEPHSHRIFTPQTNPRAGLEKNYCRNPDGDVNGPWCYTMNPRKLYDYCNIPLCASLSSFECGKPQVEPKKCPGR", "sequence (Q01177 582-812 limits assumed)": "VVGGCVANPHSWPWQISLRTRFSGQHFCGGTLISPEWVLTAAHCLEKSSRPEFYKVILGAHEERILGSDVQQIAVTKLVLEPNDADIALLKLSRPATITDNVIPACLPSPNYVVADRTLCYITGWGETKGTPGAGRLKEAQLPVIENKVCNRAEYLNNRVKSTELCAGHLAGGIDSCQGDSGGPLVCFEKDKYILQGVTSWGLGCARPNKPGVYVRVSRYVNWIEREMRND", "assay": "Inhibitory concentration against plasmin."}, "[1]": {"assay": "Inhibitory concentration against factor Xa(FXa)."}, "Serine protease 1": {"biological_target": "Serine protease 1 (Homo sapiens, UniProt P07477)", "sequence (P07477 whole entry)": "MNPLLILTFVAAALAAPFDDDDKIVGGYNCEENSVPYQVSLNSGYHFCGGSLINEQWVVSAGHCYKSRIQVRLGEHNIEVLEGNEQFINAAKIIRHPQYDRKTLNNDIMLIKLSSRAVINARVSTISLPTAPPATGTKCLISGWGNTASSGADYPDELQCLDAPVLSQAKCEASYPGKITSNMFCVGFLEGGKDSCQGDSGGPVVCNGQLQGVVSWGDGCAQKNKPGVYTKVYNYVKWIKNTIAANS", "assay": "Inhibitory concentration against trypsin."}, "Prothrombin": {"biological_target": "Prothrombin (Homo sapiens, UniProt P00734)", "assay": "Inhibitory concentration against thrombin(FIIa)."}}, "data": [{"compound": "CC(=O)N[C@H](Cc1ccccc1)C(=O)N[C@@H](Cc1cccc2ccccc12)C(=O)N[C@@H](CCCN=C(N)N)C(=O)c1nc2ccccc2o1", "values": [{"measurement": "IC50", "setting": "Plasminogen", "value": 14.2, "unit": "nM"}, {"measurement": "IC50", "setting": "[1]", "value": 29, "unit": "nM"}, {"measurement": "IC50", "setting": "Serine protease 1", "value": 6.4, "unit": "nM"}, {"measurement": "IC50", "setting": "Prothrombin", "value": "> 2500", "unit": "nM"}]}, {"compound": "CC(=O)N[C@H](Cc1ccccc1)C(=O)N1CCC[C@H]1C(=O)N[C@H]1CCCN(C(=N)N)C1O", "note": "(some centres undefined)", "values": [{"measurement": "IC50", "setting": "Plasminogen", "value": "> 2500", "unit": "nM"}, {"measurement": "IC50", "setting": "[1]", "value": "> 2500", "unit": "nM"}, {"measurement": "IC50", "setting": "Serine protease 1", "value": 156, "unit": "nM"}, {"measurement": "IC50", "setting": "Prothrombin", "value": 284, "unit": "nM"}]}, {"compound": "CC(C)(C)CC(=O)N[C@H](Cc1ccccc1)C(=O)N1CCC[C@H]1C(=O)N[C@@H](CCCN=C(N)N)C(=O)c1nc2ccccc2[nH]1", "values": [{"measurement": "IC50", "setting": "Plasminogen", "value": "> 2500", "unit": "nM"}, {"measurement": "IC50", "setting": "[1]", "value": "> 2500", "unit": "nM"}, {"measurement": "IC50", "setting": "Serine protease 1", "value": 1010, "unit": "nM"}, {"measurement": "IC50", "setting": "Prothrombin", "value": 92.1, "unit": "nM"}]}, {"compound": "CC(=O)N[C@H](Cc1ccccc1)C(=O)N[C@@H](Cc1cccc2ccccc12)C(=O)N[C@H]1CCCN(C(=N)N)C1O", "note": "(some centres undefined)", "values": [{"measurement": "IC50", "setting": "Plasminogen", "value": "< 25", "unit": "nM"}, {"measurement": "IC50", "setting": "Serine protease 1", "value": 25, "unit": "nM"}, {"measurement": "IC50", "setting": "Prothrombin", "value": "> 2500", "unit": "nM"}]}, {"compound": "CC(C)(C)CC(=O)N[C@H](Cc1ccccc1)C(=O)N1CCC[C@H]1C(=O)N[C@@H](CCCNC(=N)N)C(=O)c1nc2ccccc2o1", "values": [{"measurement": "IC50", "setting": "Plasminogen", "value": 1320, "unit": "nM"}, {"measurement": "IC50", "setting": "[1]", "value": 110, "unit": "nM"}, {"measurement": "IC50", "setting": "Serine protease 1", "value": 2.3, "unit": "nM"}, {"measurement": "IC50", "setting": "Prothrombin", "value": 68, "unit": "nM"}]}]}
